Measurements: ChEMBL document CHEMBL1201862, “PubChem BioAssay data set” (2004)
The source made the active and inactive calls.

Key:
[1] = intracellular Trypanosoma cruzi inhibitors in host cells – cell-based, plate reader, cherry-pick samples, set 3, dose response (AID 651818); format: functional;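 further: compounds incubated with infected cells for about four days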
[2] = viability loss in HeLa cells – cytotoxicity control for MgcRacGAP inhibitor project, dose response (AID 624300); format: functional
[3] = target: T1, Rac GTPase-activating protein 1 (Homo sapiens, UniProt Q9H0H5); experiment: blockers of MgcRacGAP-driven Rac1 GTP hydrolysis – biochemical, ADP Hunter fluorescence, primary and confirmatory, confirmation (AID 624330); format: functional
T1 sequence (Q9H0H5 whole entry): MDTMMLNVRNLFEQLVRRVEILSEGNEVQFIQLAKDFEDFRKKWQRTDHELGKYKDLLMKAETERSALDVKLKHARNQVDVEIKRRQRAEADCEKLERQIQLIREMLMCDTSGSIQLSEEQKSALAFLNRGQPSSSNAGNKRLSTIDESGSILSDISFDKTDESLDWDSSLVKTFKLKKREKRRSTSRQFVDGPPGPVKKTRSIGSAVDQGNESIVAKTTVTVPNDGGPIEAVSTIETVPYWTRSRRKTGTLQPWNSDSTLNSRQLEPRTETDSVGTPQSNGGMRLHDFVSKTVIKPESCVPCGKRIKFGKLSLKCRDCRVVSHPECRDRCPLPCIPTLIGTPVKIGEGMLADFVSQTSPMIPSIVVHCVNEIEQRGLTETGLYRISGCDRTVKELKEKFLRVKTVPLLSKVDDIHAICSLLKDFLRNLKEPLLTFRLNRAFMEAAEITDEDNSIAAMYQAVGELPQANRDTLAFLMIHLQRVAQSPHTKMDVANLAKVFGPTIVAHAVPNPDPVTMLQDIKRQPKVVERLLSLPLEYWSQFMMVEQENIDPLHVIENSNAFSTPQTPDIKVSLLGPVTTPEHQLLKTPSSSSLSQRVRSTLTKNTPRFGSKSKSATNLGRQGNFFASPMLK

[4] = target: FAD-linked sulfhydryl oxidase ALR (Homo sapiens, UniProt P55789); experiment: ALR-catalysed DTT oxidation blockers – biochemical, H2O2 detection, luminescence, cherry-pick, dose response (AID 493248)
[5] = blockers of HIV-1 envelope-mediated cell-cell fusion – cherry-pick, dose response (AID 652057); format: functional, cell-based
[6] = blockers of HIV-1 ZM109 envelope-driven cell-cell fusion – HeLa effector, CEM target cells, luciferase, cherry-pick, dose response (AID 652058); format: functional, cell-based;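 further: luciferase signal from HIV-1 Env mediated cell-cell fusion of effector and target cells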
[7] = off-target signal loss in HeLa-CEM21 co-culture – HeLa F-luc CTL cells, cherry-picked, counter-screen for HIV-1 Env fusion inhibitor project, dose response (AID 652040); format: functional, cell-based;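 further: potency for signal decrease marking cytotoxic or nonspecific inhibition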
[8] = HIV-1 AD8 envelope cell-cell fusion blockers – cherry-pick, dose response (AID 652062); format: functional, cell-based;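 further: luciferase signal from cell-cell fusion driven by HIV-1 clade B AD8 Env; potency is for inhibitors of fusion seen as a drop in luminescence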
[9] = target: Heat shock protein HSP 90-alpha (Homo sapiens, UniProt P07900); format: functional, organism-based
[10] = target: T2, Long-chain-fatty-acid--AMP ligase FadD28 (Mycobacterium tuberculosis, UniProt P9WQ59); experiment: Fluorescence polarization aasay to screen for inhibitors that compete for the binding of FadD28 to a bisubstrate Measured in Biochemical System Using Plate Reader - 2147-01_Inhibitor_Dose_CherryPick_Activity.; format: functional, Mycobacterium tuberculosis H37Rv
T2 sequence (P9WQ59 whole entry): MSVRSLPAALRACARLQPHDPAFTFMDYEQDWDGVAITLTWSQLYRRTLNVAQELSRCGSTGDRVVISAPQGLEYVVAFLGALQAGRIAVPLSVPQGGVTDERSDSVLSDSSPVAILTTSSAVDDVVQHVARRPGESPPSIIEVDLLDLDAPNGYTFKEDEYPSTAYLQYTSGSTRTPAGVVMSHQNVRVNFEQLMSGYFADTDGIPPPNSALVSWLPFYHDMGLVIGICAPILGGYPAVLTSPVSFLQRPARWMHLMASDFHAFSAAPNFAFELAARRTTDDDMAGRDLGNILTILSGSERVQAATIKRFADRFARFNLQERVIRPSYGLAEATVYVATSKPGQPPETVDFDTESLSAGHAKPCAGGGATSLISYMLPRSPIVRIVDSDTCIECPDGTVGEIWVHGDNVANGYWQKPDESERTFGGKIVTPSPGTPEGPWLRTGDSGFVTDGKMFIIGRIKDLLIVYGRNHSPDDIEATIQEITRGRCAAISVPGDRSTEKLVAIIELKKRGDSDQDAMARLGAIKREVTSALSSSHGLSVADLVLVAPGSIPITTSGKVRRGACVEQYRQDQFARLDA

[11] = target: T3, DNA repair and recombination protein RAD54-like (Homo sapiens, UniProt Q92698); experiment: RAD54 Holliday junction migration blockers – biochemical, fluorescence, cherry-picked samples, dose series, confirmation (AID 651657); format: functional
T3 sequence (Q92698 whole entry): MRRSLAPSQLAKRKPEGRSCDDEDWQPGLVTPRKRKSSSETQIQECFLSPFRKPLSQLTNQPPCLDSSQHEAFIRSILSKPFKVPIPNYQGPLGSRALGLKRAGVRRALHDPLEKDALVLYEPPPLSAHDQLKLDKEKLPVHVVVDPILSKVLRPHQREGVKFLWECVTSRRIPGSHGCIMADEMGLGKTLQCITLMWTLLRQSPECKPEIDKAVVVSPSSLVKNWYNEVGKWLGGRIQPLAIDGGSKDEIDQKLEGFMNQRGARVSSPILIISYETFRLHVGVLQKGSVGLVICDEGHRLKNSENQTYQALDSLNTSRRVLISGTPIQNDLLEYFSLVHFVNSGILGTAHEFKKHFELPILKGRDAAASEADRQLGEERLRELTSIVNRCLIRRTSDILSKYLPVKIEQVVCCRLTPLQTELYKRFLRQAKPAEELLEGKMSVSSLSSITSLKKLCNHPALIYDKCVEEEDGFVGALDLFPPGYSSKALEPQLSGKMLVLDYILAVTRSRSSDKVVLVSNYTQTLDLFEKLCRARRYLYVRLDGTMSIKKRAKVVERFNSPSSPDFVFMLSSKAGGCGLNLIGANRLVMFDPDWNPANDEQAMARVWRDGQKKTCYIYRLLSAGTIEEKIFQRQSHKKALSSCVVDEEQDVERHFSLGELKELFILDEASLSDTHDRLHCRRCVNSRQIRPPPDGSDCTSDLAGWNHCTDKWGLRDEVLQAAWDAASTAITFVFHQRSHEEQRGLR

[12] = target: T4, DNA repair protein RAD52 homolog (Homo sapiens, UniProt P43351); format: functional, biochemical
T4 sequence (P43351 whole entry): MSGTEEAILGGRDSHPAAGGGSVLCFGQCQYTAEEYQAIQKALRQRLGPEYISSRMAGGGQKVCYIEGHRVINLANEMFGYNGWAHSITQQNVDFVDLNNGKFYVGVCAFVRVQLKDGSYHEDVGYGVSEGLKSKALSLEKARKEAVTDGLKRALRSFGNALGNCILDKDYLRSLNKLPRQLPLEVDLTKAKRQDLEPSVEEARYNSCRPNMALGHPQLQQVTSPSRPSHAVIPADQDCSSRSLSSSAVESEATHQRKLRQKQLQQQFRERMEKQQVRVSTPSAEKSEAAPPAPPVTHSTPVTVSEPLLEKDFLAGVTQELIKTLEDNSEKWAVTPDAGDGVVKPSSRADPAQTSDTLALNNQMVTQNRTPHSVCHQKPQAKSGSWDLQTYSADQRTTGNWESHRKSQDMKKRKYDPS

[13] = A549 cell cytotoxicity, dose response, cytotoxicity control, plate reader, cherry-pick, antagonist series (AID 743412); format: functional, cell-based
[14] = toxicity toward HepG2 liver cells – cell-based, plate reader, cherry-pick, antagonist series, cytotoxicity control, dose response (AID 743416); format: functional
[15] = blockers of bursicon-stimulated LGR2 cAMP reporter – cell-based, HEK293, CRE-luciferase reporter, cherry pick, set 2, dose response (AID 743343); format: functional;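 further: transfected cells were stimulated with diluted bursicon conditioned medium after compound addition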
[16] = blockade of melanocortin 4 receptor signaling – cell-based, plate reader, cherry pick, counter-screen for LGR2 antagonist project, dose response (AID 743444); format: functional;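 further: transfected HEK 293 cells stimulated with alpha-MSH peptide; potency of inhibitors of the alpha-MSH evoked signal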
[17] = viability loss in HEK293 cells – cell-based, plate reader, cherry-picked samples, cytotoxicity control, dose response (AID 743446); format: functional

Sequence of FAD-linked sulfhydryl oxidase ALR (P55789 whole entry, the tested form may be a part): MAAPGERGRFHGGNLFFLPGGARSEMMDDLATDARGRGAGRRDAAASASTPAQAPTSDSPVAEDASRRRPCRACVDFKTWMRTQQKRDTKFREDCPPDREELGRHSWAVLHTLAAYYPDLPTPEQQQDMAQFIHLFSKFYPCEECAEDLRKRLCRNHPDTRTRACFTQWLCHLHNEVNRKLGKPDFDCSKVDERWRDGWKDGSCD

With `C[C@@H]1CN([C@H](C)CO)C(=O)Cc2cc(NC(=O)Nc3ccc4c(c3)OCO4)ccc2O[C@@H]1CN(C)Cc1ccc(C(F)(F)F)cc1` as the compound, how does the AC50 [1] read?
Its AC50 is 3.86 µM (active).

What does the source list for `CN(C)c1ccc2c(c1)C(=NO)c1ccccc1-2`?
CC50 [2]: 100 µM (active); IC50 [3]: 33.5 µM (active)

Which AC50 [1] does the source give for `C[C@H]1CN([C@@H](C)CO)C(=O)Cc2cc(NC(=O)Cc3ccccc3)ccc2O[C@H]1CN(C)Cc1ccc(C(F)(F)F)cc1` here?
The AC50 was 2.61 µM (active).

Which AC50 [4] does the source give for `COc1ccc(-c2c[nH]nc2N)c(OC)c1` here?
The AC50 was 0.411 µM (active).

And the AC50 [5]?
Its AC50 is 3.7 µM (active).

What about the AC50 [6] of the same compound?
The AC50 was 32.5 µM (active).

What about the AC50 [7] of the same compound?
Its AC50 is 20 µM (active).

And the AC50 [8]?
The AC50 was 4.98 µM (active).

What does the source list for `O=C(O)c1ccc(N/N=C/c2ccc(-c3ccccc3)cc2)cc1`?
AC50 [9]: 3.09 µM (active); AC50 [10]: 10.9 µM (active)

Which results are given for `C[C@@H]1CNC(=O)c2c(C(=O)N(C)Cc3ccccc3)ncn21`?
AC50 [5]: 1.86 µM (active); AC50 [6]: 4.8 µM (active); AC50 [7]: 3.39 µM (active); AC50 [8]: 3.68 µM (active)

Which results are given for `CN1CCCN(c2cc(-c3ccc4ccccc4c3)nc3ccnn23)CC1`?
AC50 [11]: 8.49 µM (active); AC50 [12]: 1.57 µM (active)

With `C[C@H]1CN([C@@H](C)CO)C(=O)Cc2cc(NC(=O)Nc3ccc(C(F)(F)F)cc3)ccc2O[C@H]1CN(C)Cc1ccncc1` as the compound, how does the AC50 [1] read?
Its AC50 is 5.53 µM (active).

Which AC50 [1] does the source give for `C[C@@H]1CN([C@H](C)CO)C(=O)Cc2cc(NC(=O)Nc3ccc(F)cc3)ccc2O[C@H]1CN(C)Cc1ccc(-c2ccccc2)cc1` here?
Its AC50 is 3.36 µM (active).

What does the source list for `Cc1ccc(S(=O)(=O)c2cc(Nc3ccccc3)ccc2O)cc1`?
CC50 [2]: 100 µM (active); IC50 [3]: 48.9 µM (active)

Which AC50 [9] does the source give for `CCCCCCC(=O)N(O)C1CC(=O)N(c2ccc(F)cc2)C1=O` (centres undefined) here?
The AC50 was 2.58 µM (active).

Which AC50 [5] does the source give for `O=S(=O)(c1ccccc1Cl)N1CCCC1c1nc(-c2ccc(Cl)cc2)no1` (centres undefined) here?
The AC50 was 1.99 µM (active).

What about the AC50 [7] of the same compound?
The AC50 was 60.9 µM (active).

And the AC50 [8]?
The AC50 was 14.8 µM (active).

Which AC50 [11] does the source give for `Cc1ccc2oc(=O)c3cc(C(=O)NCCCN4CCN(C)CC4)sc3c2c1` here?
Its AC50 is 34 µM (active).

With `C=CCN(C(=O)C1CC(=O)N(C2CCCC2)C1)c1nc(-c2ccc(S(C)(=O)=O)cc2)cs1` (centres undefined) as the compound, how does the AC50 [13] read?
The AC50 was 36.7 µM (active).

What about the AC50 [14] of the same compound?
The AC50 was > 52 µM (inactive).

What about the AC50 [15] of the same compound?
The AC50 was 25.8 µM (active).

What about the AC50 [16] of the same compound?
The AC50 was 41.5 µM (active).

What about the AC50 [17] of the same compound?
The AC50 was 30.1 µM (active).

Which AC50 [1] does the source give for `Cc1ccc(S(=O)(=O)N(C)C[C@H]2Oc3ccc(NS(=O)(=O)c4ccccc4)cc3CC(=O)N([C@H](C)CO)C[C@H]2C)cc1` here?
Its AC50 is 2.56 µM (active).

With `C[N+](C)(C)CCC(=O)N1C/C(=C/c2ccccc2)C(=O)/C(=C\c2ccccc2)C1` as the compound, how does the CC50 [2] read?
The CC50 was 100 µM (active).

What about the IC50 [3] of the same compound?
Its IC50 is 128 µM (active).
